{"source": "ChEMBL document CHEMBL1201862", "about": "“PubChem BioAssay data set” (2004)", "key": {"[1]": {"assay": "reduced cellular PGC1a acetyl-lysine signal – cell-based, cherry-picked samples, dose response (AID 720514);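 also: potency may reflect raised or lowered acetylation signal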", "type": "functional"}, "[2]": {"assay": "Fluorescence-based cell-based high throughput dose response assay for inhibitors of the interaction of nucleotide-binding oligomerization domain containing 2 (NOD2) and the receptor-interacting serine-threonine kinase 2 (RIPK2).", "type": "functional", "conditions": "Homo sapiens"}, "[3]": {"molecular_target": "T1, Microphthalmia-associated transcription factor (Homo sapiens, UniProt O75030)", "T1 sequence (O75030 whole entry)": "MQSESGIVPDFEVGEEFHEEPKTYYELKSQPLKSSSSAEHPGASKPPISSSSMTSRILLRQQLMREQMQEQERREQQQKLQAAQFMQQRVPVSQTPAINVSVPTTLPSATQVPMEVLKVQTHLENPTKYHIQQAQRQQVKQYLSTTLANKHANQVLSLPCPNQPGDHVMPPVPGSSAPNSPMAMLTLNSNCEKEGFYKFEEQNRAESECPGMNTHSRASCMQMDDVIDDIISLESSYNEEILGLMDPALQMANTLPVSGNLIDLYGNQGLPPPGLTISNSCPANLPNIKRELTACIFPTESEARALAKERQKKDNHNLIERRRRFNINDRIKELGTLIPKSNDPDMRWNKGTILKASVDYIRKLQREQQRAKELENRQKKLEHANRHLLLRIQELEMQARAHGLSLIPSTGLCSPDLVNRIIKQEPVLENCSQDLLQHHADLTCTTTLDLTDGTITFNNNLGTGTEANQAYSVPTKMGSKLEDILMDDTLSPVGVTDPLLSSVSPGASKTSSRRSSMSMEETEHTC", "assay": "reducers of TRPM1 reporter luminescence, concentration series – cell-based, SK-MEL-5, cherry-picked, set 3, MITF inhibitor project, dose response (AID 493073);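 also: SK-MEL-5 melanoma cells with luciferase driven by the MITF target TRPM1 promoter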", "type": "functional"}, "[4]": {"molecular_target": "Paired box protein Pax-8 (Homo sapiens, UniProt Q06710)", "sequence (Q06710 whole entry)": "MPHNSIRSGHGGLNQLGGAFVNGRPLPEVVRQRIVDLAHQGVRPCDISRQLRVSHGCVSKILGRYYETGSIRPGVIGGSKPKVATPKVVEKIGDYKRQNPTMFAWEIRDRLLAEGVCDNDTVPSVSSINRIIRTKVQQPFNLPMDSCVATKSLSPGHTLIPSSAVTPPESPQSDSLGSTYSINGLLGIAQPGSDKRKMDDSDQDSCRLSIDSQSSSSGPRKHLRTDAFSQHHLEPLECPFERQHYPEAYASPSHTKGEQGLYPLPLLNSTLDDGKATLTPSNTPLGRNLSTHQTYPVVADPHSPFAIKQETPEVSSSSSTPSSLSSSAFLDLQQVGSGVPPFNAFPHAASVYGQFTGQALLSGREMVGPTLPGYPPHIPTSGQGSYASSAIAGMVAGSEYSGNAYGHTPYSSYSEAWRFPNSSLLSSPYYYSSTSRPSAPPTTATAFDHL", "assay": "PAX8 transcriptional activity inhibition in RMG-I – RMG-I cells, luciferase, cherry-pick, dose response (AID 687027);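 also: luciferase reporter driven by Pax8 target thyroperoxidase promoter measured by SteadyGlo luminescence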", "type": "functional, cell-based"}, "[5]": {"assay": "A2780 cell killing – plate reader, dry powder samples, cytotoxicity control, dose response (AID 743046)", "type": "functional, cell-based"}, "[6]": {"assay": "OVCAR-3 cell viability loss – plate reader, dry powder samples, PAX8 inhibitor project, dose response (AID 743044)", "type": "functional, cell-based"}, "[7]": {"molecular_target": "NAD-dependent protein deacylase sirtuin-5, mitochondrial (Homo sapiens, UniProt Q9NXA8)", "sequence (Q9NXA8 whole entry)": "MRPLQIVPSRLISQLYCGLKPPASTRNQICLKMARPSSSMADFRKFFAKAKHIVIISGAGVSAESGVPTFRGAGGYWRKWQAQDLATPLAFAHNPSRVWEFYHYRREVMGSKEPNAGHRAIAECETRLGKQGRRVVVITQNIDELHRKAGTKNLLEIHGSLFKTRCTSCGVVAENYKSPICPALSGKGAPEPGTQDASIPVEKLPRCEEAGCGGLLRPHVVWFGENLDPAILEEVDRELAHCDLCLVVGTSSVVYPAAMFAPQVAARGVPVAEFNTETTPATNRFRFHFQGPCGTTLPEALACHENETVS", "assay": "sirtuin-5 deacylation blockers, concentration series – biochemical, fluorescence imaging, cherry-pick, set 5, dose response (AID 720591);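 also: desuccinylation of succinyl peptide AMC substrate read as fluorescence after trypsin release; potency of inhibitors that lower fluorescence and may act on trypsin instead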"}, "[8]": {"test_system": "BJ", "assay": "BJ-TERT-LT-ST fibroblast viability loss – cell-based, RAS-independent, luminescence, dose response (AID 1935);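 also: BJ fibroblasts immortalized with TERT plus LT and ST oncogenes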", "type": "functional", "conditions": "Homo sapiens"}, "[9]": {"test_system": "BJ", "assay": "cells", "type": "functional, cell-based", "conditions": "Homo sapiens"}, "[10]": {"assay": "DRD fibroblast viability loss – cell-based, non-viral oncogenic, luminescence, dose response (AID 1934)", "type": "functional", "conditions": "Homo sapiens"}, "[11]": {"assay": "cells", "type": "functional, cell-based", "conditions": "HEK-CNG"}, "[12]": {"molecular_target": "Galanin receptor type 3 (Homo sapiens, UniProt O60755)", "sequence (O60755 whole entry)": "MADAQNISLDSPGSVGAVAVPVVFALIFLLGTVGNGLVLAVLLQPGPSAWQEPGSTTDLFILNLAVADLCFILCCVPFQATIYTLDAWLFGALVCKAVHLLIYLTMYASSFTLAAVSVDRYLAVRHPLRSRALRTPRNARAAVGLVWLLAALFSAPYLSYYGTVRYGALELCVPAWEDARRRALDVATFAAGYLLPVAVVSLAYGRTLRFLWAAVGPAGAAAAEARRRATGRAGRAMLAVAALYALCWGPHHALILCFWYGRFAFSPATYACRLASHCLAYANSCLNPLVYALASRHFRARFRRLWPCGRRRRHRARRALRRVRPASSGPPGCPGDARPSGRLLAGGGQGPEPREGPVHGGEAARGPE", "assay": "Fluorescence-based cell-based primary high throughput dose response assay to identify antagonists of the Galanin Receptor 3 (GalR3).", "type": "functional"}, "[13]": {"test_system": "BJ", "assay": "BJ-TERT fibroblast viability loss – cell-based, RAS-independent, luminescence, dose response (AID 1933)", "type": "functional", "conditions": "Homo sapiens"}, "[14]": {"molecular_target": "COUP transcription factor 2 (Homo sapiens, UniProt P24468)", "sequence (P24468 whole entry)": "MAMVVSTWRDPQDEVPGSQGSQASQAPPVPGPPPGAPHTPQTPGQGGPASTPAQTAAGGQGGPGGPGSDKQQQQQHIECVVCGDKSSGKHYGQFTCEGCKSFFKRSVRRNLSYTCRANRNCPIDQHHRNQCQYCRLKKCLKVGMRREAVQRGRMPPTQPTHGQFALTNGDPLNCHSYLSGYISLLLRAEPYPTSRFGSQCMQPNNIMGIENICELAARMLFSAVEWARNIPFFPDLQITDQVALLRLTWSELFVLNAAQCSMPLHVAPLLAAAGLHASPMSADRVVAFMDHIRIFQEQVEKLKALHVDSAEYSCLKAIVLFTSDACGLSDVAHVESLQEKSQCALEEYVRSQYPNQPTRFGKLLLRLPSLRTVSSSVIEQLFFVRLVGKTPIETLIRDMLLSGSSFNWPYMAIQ", "assay": "Luminescence-based cell-based high throughput dose response assay to identify inhibitors of COUP-TFII (NR2F2).", "type": "functional"}, "[15]": {"assay": "rise of 4N DNA cells, HeLa – IC50, dose response (AID 1117351)", "type": "functional, cell-based"}, "[16]": {"assay": "rise of 2N DNA cells, HeLa – IC50, dose response (AID 1117349)", "type": "functional, cell-based"}}, "note": "Structures can show the parent of a compound that is named as a salt. The source made the active and inactive calls.", "data": [{"compound": "Cc1ccc(NC(=O)Cn2ncc(Cl)c(Cl)c2=O)cc1S(=O)(=O)N1CCCCC1", "values": [{"measurement": "AC50", "setting": "[1]", "result": "7.27 µM (active)"}, {"measurement": "IC50", "setting": "[2]", "result": "2.88 µM (active)"}, {"measurement": "AC50", "setting": "[3]", "result": "13.7 µM (active)"}, {"measurement": "AC50", "setting": "[4]", "result": "4.58 µM (active)"}]}, {"compound": "C[C@@H]1CN([C@H](C)CO)C(=O)c2cc(NS(=O)(=O)c3ccc(Cl)cc3)ccc2O[C@@H](C)CCCCO[C@@H]1CN(C)Cc1ccc(Cl)c(Cl)c1", "values": [{"measurement": "AC50", "setting": "[5]", "result": "2.73 µM (active)"}, {"measurement": "AC50", "setting": "[4]", "result": "11.7 µM (active)"}, {"measurement": "AC50", "setting": "[6]", "result": "49.5 µM (active)"}]}, {"compound": "COc1cc(Nc2ncc3c(n2)CCN(C(=O)Nc2ccc(C(C)C)cc2)C3)cc(OC)c1OC", "values": [{"measurement": "AC50", "setting": "[7]", "result": "17 µM (active)"}]}, {"compound": "COc1ccccc1N1C(C)=CC(=Cc2sc3ccccc3[n+]2C)C=C1C", "values": [{"measurement": "EC50", "setting": "[8]", "result": "3.16 µM (inconclusive)"}, {"measurement": "EC50", "setting": "[9]", "result": "2.54 µM (active)"}, {"measurement": "EC50", "setting": "[10]", "result": "6.24 µM (active)"}, {"measurement": "EC50", "setting": "[11]", "result": "> 29.9 µM (inactive)"}, {"measurement": "IC50", "setting": "[12]", "result": "0.128 µM (active)"}, {"measurement": "EC50", "setting": "[13]", "result": "3.07 µM (inconclusive)"}, {"measurement": "IC50", "setting": "[14]", "result": "0.617 µM (active)"}]}, {"compound": "CN1CC[C@H](c2c(O)cc(O)c3c(=O)cc(-c4ccccc4Cl)oc23)[C@H](O)C1", "note": "[ALVOCIDIB HYDROCHLORIDE]", "values": [{"measurement": "IC50", "setting": "[15]", "result": "> 10 µM (inactive)"}, {"measurement": "IC50", "setting": "[16]", "result": "> 10 µM (inactive)"}]}]}
